Experimental data: patent publication US5494901A, “Topical compositions for the eye comprising a β-cyclodextrin derivative and a therapeutic agent” (priority 1993, dated 1996)
≈ marks a conversion by molar mass, not a printed value. Structures can show the parent of a compound that is named as a salt. Where two headings read alike, the source gives them in different places. Values belong to the compound of their own block, whether it stands above or below them.

Experiments:
intraocular pressure [1] = assay: Intraocular pressure after topical acetazolamide preparations, Perkins applanation tonometer (Example 2); type: in vivo, New Zealand white rabbits; conditions: 1% Na-acetazolamide in 0.9% NaCl, FIG. 1
Experimental: Solutions of 1% acetazolamide in 45% HPBCD and 1% Na-acetazolamide in 0.9% NaCl were applied to paired right and left eyes of 10 New Zealand white rabbits (the HPBCD is Type B of Example 3). Intraocular pressure was measured with a Perkins applanation tonometer at hourly intervals until all pressures returned to baseline. […] As a further control, the acetazolamide/HPBCD preparation was compared with 45% HPBCD alone (control).

[2] = cited from earlier work
[3] = Palmitic acid in centrifuged fractions of 2-hydroxypropyl-β-cyclodextrin solution in D2O, by GLC (Example 7); type: physicochemical; conditions: Wacker HPBCD in D2O, 100,000× g 3 hours
Experimental: 2.25 g of Wacker 2-hydroxypropyl-β-cyclodextrin (Source C of Example 3) was dissolved in D2 O to give a final volume of 5.0 ml. 100 mg of palmitic acid was added to the solution and the mixture placed in an ultrasonic water bath at 60° C. for several hours, after which it was brought to room temperature and filtered through an 0.22 mμ millipore filter to obtain a clear solution. 3.0 ml of the solution was centrifuged at 100,000× g for 3 hours in a Beckman TL-100 centrifuge. Following centrifugation, aliquots of approximately 1.0 ml were removed from the tube to give upper, middle and lower fractions. A 0.1 ml aliquot from each fraction was pipetted into a tube and 1 mg of cholesterol added as an internal standard. Each tube was then partitioned between ethyl acetate and water to extract all of the palmitic acid and internal standard. The amount of palmitic acid in each aliquot was then determined by GLC using a flame detector.

[4] = with β-cyclodextrin at either 3% or 1.5%; topical; Grove et al.; cited from earlier work
[5] = Maximum solubility and guest/host molar ratios in 45% hydroxypropyl-β-cyclodextrin (Example 6); type: physicochemical; conditions: source C (Wacker)
[6] = Maximum solubility of acetazolamide with commercial HPBCD preparations (Example 3); type: physicochemical
From the text: The solubility of the active agent can be determined by any of the conventional methods available. For example, solutions of the agent, prepared with and without a β-cyclodextrin derivative, can be filtered (e.g., using a 0.22 or 0.45 μm membrane filter) to eliminate undissolved agent, and subjected to chromatography (e.g., reverse-phase HPLC) to determine the concentration of agent present in the solution.
In order to assess the efficiency of 3 different commercially available preparations of HPBCD, the maximum solubility of acetazolamide (maximum solubility in water: 0.1%) was determined for each. The three sources of HPBCD were (A) Roquette (RE No. 446601), (B) American Maize ("Encapsin"), and (C) Wacker Chemical (BetaW7, HP0.9).

[7] = Maximum solubility and guest/host molar ratios in 45% hydroxypropyl-β-cyclodextrin (Example 6); type: physicochemical; conditions: for solubility: 45% hpbcd
Experimental: 45% (w/v) aqueous solutions of 2-hydroxypropyl-β-cyclodextrin using either source A or B (see Example 3) were prepared, and the maximum solubilities of phenoltetrabromphthalein and of cholesterol were determined per 5.0 ml of solution using standard techniques. Phenoltetrabromphthalein concentration was determined spectrophotometrically at 580 mμ. Cholesterol concentration was determined by both GLC and by liquid scintillation counting using cholesterol of known specific activity. The data are shown below, along with a summary of data from other examples.

[8] = test system: anterior chamber of the eye; assay: Fluorescence in anterior chamber after topical Na-Fluorescein, slit lamp biomicroscope; type: in vivo, New Zealand white rabbit; conditions: 2% Na-Fluorescein in 0.9% saline; at one hour; rabbit
Experimental: Solutions of 2% Na-Fluorescein were prepared in 0.9% Saline, 4.5% HPBCD, and 45% HPBCD (the HPBCD is Type B of Example 3). Each solution was applied to the eye of a New Zealand white rabbit and observed for a period of one hour. The anterior chamber of the eye was examined with a standard blue light source on a slit lamp biomicroscope.

intraocular pressure [9] = assay: Intraocular pressure after 1% methazolamide in 45% HPBCD, applanation tonometry (Example 5); type: in vivo, New Zealand white rabbits; conditions: dissolved in HPBCD
Experimental: Solutions of 1% methazolamide in 45% HPBCD and the HPBCD alone (control) were applied to paired right and left eyes of New Zealand white rabbits. Intraocular pressure was measured by applanation tonometry until pressures returned to baseline.

[10] = test system: intraocular pressure of the normal rabbit eye; conditions: topical, Silvestrini; cited from earlier work
[11] = source A (Roquette), read-out: maximum solubility
[12] = source B (A. Maize), read-out: maximum solubility

Structure (SMILES): CC(=O)Nc1nnc(S(N)(=O)=O)s1 [Na-acetazolamide]
lowering of intraocular pressure (intraocular pressure [1]): only a transient, non-statistically significant lowering of intraocular pressure

Structure (SMILES): CNC[C@H](O)c1ccc(O)c(O)c1 [epinephrine]
sensitivity developed by patients ([2]; topical, used for a year or longer): frequently develop sensitivity

Palmitic acid in fraction ([3]; Lower fraction): 23.4 μg/0.1 ml | Palmitic acid in fraction ([3]; Middle fraction): 34.0 μg/0.1 ml | Palmitic acid in fraction ([3]; Upper fraction): 41.0 μg/0.1 ml
Structure (SMILES): CCCCCCCCCCCCCCCC(=O)O [Palmitic acid, palmitic acid]

Structure (SMILES): CCN[C@H]1C[C@H](C)S(=O)(=O)c2sc(S(N)(=O)=O)cc21 [L-671152]
ocular bioavailability compared to inhibitor administered alone [4]: about 50%

Structure (SMILES): CC(=O)Nc1nnc(S(N)(=O)=O)s1 [acetazolamide]
guest/host molar ratio ([5]; 45% HPBCD): 0.31 | solubility ([5]; 45% hpbcd): 20000 µg/mL | solubility ([6]; hpbcd solution, HPBCD source A, Roquette (RE No. 446601), read-out: maximum solubility): 1000 µg/mL (≈ 4.5 mM) | solubility ([6]; hpbcd solution, HPBCD source B, American Maize ("Encapsin"), read-out: maximum solubility): 10000 µg/mL (≈ 45 mM) | solubility ([6]; hpbcd solution, HPBCD source C, Wacker Chemical (BetaW7, HP0.9), read-out: maximum solubility): 18000 µg/mL (≈ 81 mM) | solubility ([6]; water, read-out: maximum solubility in water): 1000 µg/mL (≈ 4.5 mM) | guest/host molar ratio ([7]; 45% HPBCD, source B (A. Maize)): 0.31 | solubility [7, 11]: > 5000 µg/mL | solubility [7, 12]: 20000 µg/mL

fluorescence seen in the eye [8]: considerable fluorescence
Structure (SMILES): O=C1OC2(c3ccc(O)cc3Oc3cc(O)ccc32)c2ccccc21 [Na-Fluorescein]

Structure (SMILES): CNCC(O)c1ccc(OC(=O)C(C)(C)C)c(OC(=O)C(C)(C)C)c1 (centres unmarked) [dipiviphrine]
sensitivity developed by patients ([2]; human, in vivo): frequently develop sensitivity

Structure (SMILES): CC(=O)/N=c1/sc(S(N)(=O)=O)nn1C [methazolamide]
duration of effect relative to acetazolamide (intraocular pressure [9]): longer duration of effect than does acetazolamide | potency relative to acetazolamide (intraocular pressure [9]): more potent

Structure (SMILES): CC(C)CCC[C@@H](C)[C@H]1CC[C@H]2[C@@H]3CC=C4C[C@@H](O)CC[C@]4(C)[C@H]3CC[C@]12C [Cholesterol, cholesterol]
guest/host molar ratio ([7]; 45% HPBCD, source A (Roquette)): .0015 | guest/host molar ratio ([7]; 45% HPBCD, source B (A. Maize)): .038 | solubility [7, 11]: 80 µg/mL | solubility [7, 12]: 4300 µg/mL

Structure (SMILES): CC(=O)Nc1nnc(S(N)(=O)=O)s1 [disodium salts of acetazolamide]
lowering of intraocular pressure [10]: can be used to lower the intraocular pressure of the normal rabbit eye

Structure (SMILES): C[C@@H](CO)CCC[C@@H](C)[C@H]1CC[C@H]2[C@@H]3CC=C4C[C@@H](O)CC[C@]4(C)[C@H]3CC[C@]12C [26-hydroxy cholesterol]
guest/host molar ratio [7]: .16 | solubility ([7]; maximum solubility): 20000 µg/mL
